Six compounds from US10077261B2, “Imidazolin-5-one derivative useful as FASN inhibitors for the treatment of cancer” (Janssen Pharmaceutica NV, priority 2012, dated 2018) can be followed below.

Experiment [1] deals with T1, hFASN enzyme (full length) (Homo sapiens, UniProt P49327).
T1 construct: 10 μL hFASN enzyme (full length, 300 ng, purified in house); made in house
Description: Fatty Acid Synthase (FASN) inhibition scintillation proximity assay. Particulars: for inhibition at 10 µM: read-out: Human FASN % inhibition @ 10 μM, 10 μM test compound; for IC50: read-out: Human FASN pIC50 (converted). In kind it is biochemical. An outline of the steps:
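Read-out relies on hydrophobic ³H-palmitate product, formed from ³H-acetyl-CoA and malonyl-CoA, binding streptavidin imaging beads, measured at 610±20 nm after at least 24 h. Full-length enzyme (300 ng) in phosphate buffer pH 7.5 with DTT; eight compound concentrations, 0.01–30 μM.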
(In general: SPA uses beads or plates that emit light when radiolabelled molecules are held near them.)

Experiment [2] relates to A2780 ovarian cells. Description: A2780 ovarian cell proliferation assay in lipid reduced medium, with palmitate (MTT). It is filed as cell-based. Particulars: Homo sapiens, A2780, 96 h; read-out: pIC50 A2780 Ovarian Cell, With Palmitate (converted). In outline: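 In this palmitate-supplemented format, compound dilutions (30 μM down to 0.01 μM) are added to cells in lipid-reduced serum with 25 μM palmitate, 0.2% fatty-acid-free BSA and 0.25% ethanol. After four days (96 h) MTT absorbance at 544 nm is recorded and fitted by minimum sum of squares.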

The subject of experiment [3] is A2780 ovarian cells. Description: A2780 ovarian cell proliferation assay in lipid reduced medium, without palmitate (MTT). It is filed as cell-based. To be noted: Homo sapiens, A2780, 96 h; read-out: pIC50 A2780 Ovarian Cell, Without Palmitate (converted).
The subject of experiment [4] is LNCaP-Vancouver prostate cells. Description: In vitro LNCaP Vancouver prostate cell proliferation assay in lipid reduced medium. Particulars: read-out: pIC50 LNCaP_Vancouver prostate cell (converted). In kind it is cell-based.
Experiment [5] deals with PC-3M-Luc-C6 prostate cells. Description: In vitro PC-3M-Luc-C6 prostate cell proliferation assay in lipid reduced medium. It is filed as cell-based. To be noted: 96 h, read-out: pIC50 PC-3M-Luc-C6 prostate cell (converted).
Experiment [6] deals with Fatty Acid Synthase Keto-reductase Domain (FASN KR) (Homo sapiens, UniProt P49327). Description: Fatty Acid Synthase keto-reductase domain (FASN KR) inhibition, NADPH oxidation at 340 nm.
Description: After 20 minutes incubation at room temperature the plate was measured again (T2).
The decrease in absorbance was calculated as (Absorbance before incubation T1)−(Absorbance following incubation T2).
A plot of Controlmin versus test compound concentration was fitted to a 4-parameter logistic curve using a non-linear least squares regression method.

Where only a bound is given, the exact number is not on record here.

Fatty Acid Synthase Keto-reductase Domain (FASN KR), sequence (P49327 whole entry, the tested form may be a part): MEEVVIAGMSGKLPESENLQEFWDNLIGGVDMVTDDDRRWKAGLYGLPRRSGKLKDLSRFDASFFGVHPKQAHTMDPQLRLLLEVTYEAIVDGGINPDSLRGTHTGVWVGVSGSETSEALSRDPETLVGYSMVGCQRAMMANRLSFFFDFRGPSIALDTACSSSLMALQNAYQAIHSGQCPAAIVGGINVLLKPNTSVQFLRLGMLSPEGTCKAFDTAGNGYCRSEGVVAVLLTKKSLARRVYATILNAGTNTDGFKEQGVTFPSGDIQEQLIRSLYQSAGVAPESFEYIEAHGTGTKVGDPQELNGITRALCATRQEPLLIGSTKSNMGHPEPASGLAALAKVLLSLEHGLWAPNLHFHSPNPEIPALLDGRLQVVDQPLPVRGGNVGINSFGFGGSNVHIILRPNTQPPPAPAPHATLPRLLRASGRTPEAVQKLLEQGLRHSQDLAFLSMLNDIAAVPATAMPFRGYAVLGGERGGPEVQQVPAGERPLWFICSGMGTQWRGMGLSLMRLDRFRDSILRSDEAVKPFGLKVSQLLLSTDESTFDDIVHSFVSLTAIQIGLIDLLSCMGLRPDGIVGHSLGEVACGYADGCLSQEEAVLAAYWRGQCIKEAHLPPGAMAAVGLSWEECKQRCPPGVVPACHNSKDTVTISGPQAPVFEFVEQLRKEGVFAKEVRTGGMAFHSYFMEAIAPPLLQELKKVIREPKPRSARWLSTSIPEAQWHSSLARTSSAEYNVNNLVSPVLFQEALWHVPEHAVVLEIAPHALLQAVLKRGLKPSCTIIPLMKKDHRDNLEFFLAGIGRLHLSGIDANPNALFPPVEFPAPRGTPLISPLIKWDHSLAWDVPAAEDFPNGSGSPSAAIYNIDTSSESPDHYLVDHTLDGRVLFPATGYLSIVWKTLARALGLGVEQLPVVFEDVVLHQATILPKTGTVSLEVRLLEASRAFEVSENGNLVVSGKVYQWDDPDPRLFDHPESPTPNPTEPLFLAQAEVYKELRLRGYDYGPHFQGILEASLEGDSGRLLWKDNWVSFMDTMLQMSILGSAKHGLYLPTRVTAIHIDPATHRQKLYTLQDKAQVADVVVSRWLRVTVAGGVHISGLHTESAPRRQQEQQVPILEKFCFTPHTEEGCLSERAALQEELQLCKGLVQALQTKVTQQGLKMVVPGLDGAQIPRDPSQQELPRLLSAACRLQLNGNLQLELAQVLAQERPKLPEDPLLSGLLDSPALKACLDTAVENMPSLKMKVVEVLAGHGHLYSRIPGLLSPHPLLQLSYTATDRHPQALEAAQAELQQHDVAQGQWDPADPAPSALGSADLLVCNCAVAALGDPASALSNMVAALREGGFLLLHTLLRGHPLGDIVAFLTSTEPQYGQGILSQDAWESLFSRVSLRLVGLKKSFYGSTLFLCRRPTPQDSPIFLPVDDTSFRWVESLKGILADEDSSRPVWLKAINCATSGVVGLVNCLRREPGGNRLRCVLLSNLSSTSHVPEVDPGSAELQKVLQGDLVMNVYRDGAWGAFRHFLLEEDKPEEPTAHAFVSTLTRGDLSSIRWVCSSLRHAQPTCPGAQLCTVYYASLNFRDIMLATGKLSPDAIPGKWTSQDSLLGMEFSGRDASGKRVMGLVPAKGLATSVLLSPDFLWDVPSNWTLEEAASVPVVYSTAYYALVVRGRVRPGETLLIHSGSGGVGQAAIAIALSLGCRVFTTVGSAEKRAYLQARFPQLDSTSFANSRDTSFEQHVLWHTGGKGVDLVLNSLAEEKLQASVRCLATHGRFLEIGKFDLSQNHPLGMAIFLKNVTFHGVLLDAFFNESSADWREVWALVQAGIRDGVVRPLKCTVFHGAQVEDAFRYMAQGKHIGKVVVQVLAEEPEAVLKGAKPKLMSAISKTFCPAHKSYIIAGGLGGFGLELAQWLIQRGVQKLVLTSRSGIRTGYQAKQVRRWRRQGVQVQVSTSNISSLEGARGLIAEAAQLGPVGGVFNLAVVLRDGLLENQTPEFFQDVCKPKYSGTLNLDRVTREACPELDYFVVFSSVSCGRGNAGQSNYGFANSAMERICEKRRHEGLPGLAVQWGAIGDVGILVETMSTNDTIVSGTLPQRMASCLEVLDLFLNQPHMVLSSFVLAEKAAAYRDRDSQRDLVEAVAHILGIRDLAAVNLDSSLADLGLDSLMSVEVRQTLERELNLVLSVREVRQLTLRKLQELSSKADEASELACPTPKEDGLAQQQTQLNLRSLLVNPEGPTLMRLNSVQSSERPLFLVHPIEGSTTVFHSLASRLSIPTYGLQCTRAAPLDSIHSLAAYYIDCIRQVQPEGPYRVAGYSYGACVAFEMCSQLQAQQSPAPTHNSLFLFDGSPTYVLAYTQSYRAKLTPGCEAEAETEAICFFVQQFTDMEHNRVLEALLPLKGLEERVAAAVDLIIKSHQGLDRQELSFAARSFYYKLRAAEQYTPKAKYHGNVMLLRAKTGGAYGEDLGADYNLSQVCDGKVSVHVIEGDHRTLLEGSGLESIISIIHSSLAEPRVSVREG
T1 sequence (P49327 whole entry): as the sequence (P49327 whole entry, the tested form may be a part) above

Turning to `CC(O)C(=O)N1CC[C@@H](CN2C(=O)C3(CCOCC3)N=C2c2ccc(-c3ccc4cccnc4c3)cc2)C1` (stereo partly drawn) [compound 662, 3-{[(3R)-1-(2-Hydroxypropanoyl)pyrrolidin-3-yl]methyl}-2-(4-quinolin-7-ylphenyl)-8-oxa-1,3-diazaspiro[4.5]dec-1-en-4-one], the inhibition (commonly the drop in the measured response relative to a control, in per cent) at 10 µM in experiment [1] was found to be 98%. For the same compound, the IC50 is 302 nM in experiment [1]; greater than 10000 nM with A2780 ovarian cells [2]; 457 nM in the experiment on A2780 ovarian cells [3]; 2880 nM in experiment [4]; 708 nM in experiment [5]; 617 nM in experiment [6].

`O=C(N1CCCC1)N1CC[C@@H](CN2C(=O)C3(CCOCC3)N=C2c2ccc(-c3ccc4cccnc4c3)cc2)C1` [compound 665, 3-{[(3S)-1-(Pyrrolidin-1-ylcarbonyl)pyrrolidin-3-yl]methyl}-2-(4-quinolin-7-ylphenyl)-8-oxa-1,3-diazaspiro[4.5]dec-1-en-4-one]: the inhibition at 10 µM in experiment [1] was found to be 94%. The IC50 was 324 nM in experiment [1]; greater than 10000 nM with A2780 ovarian cells [2]; 550 nM with A2780 ovarian cells [3]; 1230 nM in experiment [4]; 794 nM in experiment [5]; 631 nM in experiment [6].

Turning to `Cn1cc(-c2ccc(-c3ccc(C4=NC5(CCOC5)C(=O)N4C[C@@H]4CCN(C(=O)[C@H]5CCCO5)C4)cc3)cc2)cn1` (stereo partly drawn) [compound 678, 2-[4′-(1-Methyl-1H-pyrazol-4-yl)biphenyl-4-yl]-3-({(3R)-1-[(2R)-tetrahydro-furan-2-ylcarbonyl]pyrrolidin-3-yl}methyl)-7-oxa-1,3-diazaspiro[4.4]non-1-en-4-one], the inhibition at 10 µM in experiment [1] is 95%. Further, the IC50 in experiment [1] is 372 nM; with A2780 ovarian cells [2] it was greater than 10000 nM; with A2780 ovarian cells [3] it was 676 nM; in experiment [4], 3310 nM; in experiment [5], 891 nM; in experiment [6], 832 nM.

For the compound `CC(O)C(=O)N1CC[C@@H](CN2C(=O)C3(CCOC3)N=C2c2ccc(-c3ccc4cccnc4c3)cc2)C1` (stereo partly drawn) [compound 681, 3-{[(3R)-1-(2-Hydroxypropanoyl)pyrrolidin-3-yl]methyl}-2-(4-quinolin-7-ylphenyl)-7-oxa-1,3-diazaspiro[4.4]non-1-en-4-one], the inhibition at 10 µM in experiment [1] is 91%. Also, the IC50 was 295 nM in experiment [1]; greater than 10000 nM in the experiment on A2780 ovarian cells [2]; 794 nM with A2780 ovarian cells [3]; 4900 nM in experiment [4]; 1380 nM in experiment [5]; 1380 nM in experiment [6].

In the case of `O=C([C@H]1CCCO1)N1CC[C@@H](CN2C(=O)C3(CCOC3)N=C2c2ccc(-c3ccc4cccnc4c3)cc2)C1` (stereo partly drawn) [compound 682, 2-(4-Quinolin-7-ylphenyl)-3-({(3R)-1-[(2R)-tetrahydro-furan-2-ylcarbonyl]pyrrolidin-3-yl}methyl)-7-oxa-1,3-diazaspiro[4.4]non-1-en-4-one], the inhibition at 10 µM in experiment [1] came out at 96%. Further, the IC50 in experiment [1] was 115 nM; in the experiment with A2780 ovarian cells [2] it was greater than 10000 nM; with A2780 ovarian cells [3], 117 nM; in experiment [4] it was 1000 nM; in experiment [5], 219 nM; in experiment [6], 182 nM.

With `O=C(N1CCCC1)N1CC[C@@H](CN2C(=O)C3(CCOC3)N=C2c2ccc(-c3ccc4cccnc4c3)cc2)C1` (stereo partly drawn) [compound 685, 3-{[(3S)-1-(Pyrrolidin-1-ylcarbonyl)pyrrolidin-3-yl]methyl}-2-(4-quinolin-7-ylphenyl)-7-oxa-1,3-diazaspiro[4.4]non-1-en-4-one], the inhibition at 10 µM in experiment [1] was determined as 84%. Moreover, the IC50 was 851 nM in experiment [1]; greater than 10000 nM in the experiment on A2780 ovarian cells [2]; 1230 nM with A2780 ovarian cells [3]; 3020 nM in experiment [4]; 1170 nM in experiment [5]; 1620 nM in experiment [6].
